According to PubChem BioAssay AID2060488 (Molecular Pharmacology Branch, DTP, NCI, 2025):

Test system: 966289-007-R4-J1-PDC complex spheroid viability
Assay: Anticancer human tumor 966289-007-R4-J1-PDC patient-derived pancreatic adenocarcinoma cell line growth inhibition [GQUAD]
Conditions: for IC50: curve of first compound; for viability, T/C: stronger effect = lower value
Procedure, shortened: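 Multi-cell-type spheroids of tumor cells with HUVEC and mesenchymal stem cells, treated with drug combinations. Concentrations descend in half-log steps from near clinical Cmax, or from 10 microM where Cmax is unknown; viability read-out.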

[1] = second compound 0.0316 µM, first compound 0.0316 µM
[2] = second compound 0.0316 µM, first compound 0.1 µM
[3] = second compound 0.0316 µM, first compound 0.316 µM
[4] = second compound 0.0316 µM, first compound 1 µM
[5] = second compound 0.0316 µM, first compound 3.16 µM
[6] = second compound 0.0316 µM, first compound 10 µM
[7] = second compound 0.1 µM, first compound 0.0316 µM
[8] = second compound 0.1 µM, first compound 0.1 µM
[9] = second compound 0.1 µM, first compound 0.316 µM
[10] = second compound 0.1 µM, first compound 1 µM
[11] = second compound 0.1 µM, first compound 3.16 µM
[12] = second compound 0.1 µM, first compound 10 µM
[13] = second compound 0.316 µM, first compound 0.0316 µM
[14] = second compound 0.316 µM, first compound 0.1 µM
[15] = second compound 0.316 µM, first compound 0.316 µM
[16] = second compound 0.316 µM, first compound 1 µM
[17] = second compound 0.316 µM, first compound 3.16 µM
[18] = second compound 0.316 µM, first compound 10 µM
[19] = second compound 1 µM, first compound 0.0316 µM
[20] = second compound 1 µM, first compound 0.1 µM
[21] = second compound 1 µM, first compound 0.316 µM
[22] = second compound 1 µM, first compound 1 µM
[23] = second compound 1 µM, first compound 3.16 µM
[24] = second compound 1 µM, first compound 10 µM
[25] = second compound 3.16 µM, first compound 0.0316 µM
[26] = second compound 3.16 µM, first compound 0.1 µM
[27] = second compound 3.16 µM, first compound 0.316 µM
[28] = second compound 3.16 µM, first compound 1 µM
[29] = second compound 3.16 µM, first compound 3.16 µM
[30] = second compound 3.16 µM, first compound 10 µM
[31] = second compound 10 µM, first compound 0.0316 µM
[32] = second compound 10 µM, first compound 0.1 µM
[33] = second compound 10 µM, first compound 0.316 µM
[34] = second compound 10 µM, first compound 1 µM
[35] = second compound 10 µM, first compound 3.16 µM
[36] = second compound 10 µM, first compound 10 µM
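Further: spheroids exposed to the agents for seven days before readout.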
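Wherever viability, T/C is given: percent viability relative to DMSO vehicle control wells taken as 100%.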

For C=CC(=O)N1CCN(c2nc(=O)n(-c3c(C)ccnc3C(C)C)c3nc(-c4c(O)cccc4F)c(F)cc23)C(C)C1 (stereo unspecified) + CN(C)c1ccc(Nc2c3ccc(NC(=O)CCN4CCCC4)cc3nc3cc(NC(=O)CCN4CCCC4)ccc23)cc1, the IC50 (second compound 0.0316 µM) was greater than 10 µM, the IC50 (second compound 0.1 µM) was greater than 10 µM and the IC50 (second compound 0.316 µM) was greater than 10 µM. For the same molecule, the IC50 (second compound 1 µM) was greater than 10 µM, the IC50 (second compound 3.16 µM) was greater than 10 µM and the IC50 (second compound 10 µM) was 6.78 µM. For the same molecule, the viability, T/C [1] was 107%, the viability, T/C [2] was 99.6% and the viability, T/C [3] was 106%. For the same molecule, the viability, T/C [4] was 100%, the viability, T/C [5] was 106% and the viability, T/C [6] was 110%. For the same molecule, the viability, T/C [7] was 101%, the viability, T/C [8] was 105% and the viability, T/C [9] was 105%. For the same molecule, the viability, T/C [10] was 104%, the viability, T/C [11] was 102% and the viability, T/C [12] was 113%. For the same molecule, the viability, T/C [13] was 96%, the viability, T/C [14] was 104% and the viability, T/C [15] was 106%. The viability, T/C [16] was 102%, the viability, T/C [17] was 97.1% and the viability, T/C [18] was 111%. For the same molecule, the viability, T/C [19] was 94.3%, the viability, T/C [20] was 99.8% and the viability, T/C [21] was 102%. For the same molecule, the viability, T/C [22] was 94.8%, the viability, T/C [23] was 108% and the viability, T/C [24] was 108%. It also gave a viability, T/C [25] of 99.6%, a viability, T/C [26] of 101% and a viability, T/C [27] of 107%. The viability, T/C [28] was 105%, the viability, T/C [29] was 106% and the viability, T/C [30] was 111%. The viability, T/C [31] was 105%, the viability, T/C [32] was 101% and the viability, T/C [33] was 108%. The viability, T/C [34] was 105%, the viability, T/C [35] was 106% and the viability, T/C [36] was 21.7%.

For O=C(NO)c1cnc(N2CCN(S(=O)(=O)c3ccc4ccccc4c3)CC2)nc1 + Cc1cnc(CNC(=O)c2c(=O)c3ccc(N4CCCN(C)CC4)nc3n3c2sc2ccccc23)cn1, the IC50 (second compound 0.0316 µM) was 0.209 µM, the IC50 (second compound 0.1 µM) was less than 0.0316 µM and the IC50 (second compound 0.316 µM) was less than 0.0316 µM. For the same molecule, the IC50 (second compound 1 µM) was less than 0.0316 µM, the IC50 (second compound 3.16 µM) was less than 0.0316 µM and the IC50 (second compound 10 µM) was less than 0.0316 µM. It also gave a viability, T/C [1] of 96.4%, a viability, T/C [2] of 87.3% and a viability, T/C [3] of 28.8%. For the same molecule, the viability, T/C [4] was 8.77%, the viability, T/C [5] was 2.84% and the viability, T/C [6] was 0.33%. For the same molecule, the viability, T/C [7] was 31.3%, the viability, T/C [8] was 31.9% and the viability, T/C [9] was 10.8%. The viability, T/C [10] was 4.55%, the viability, T/C [11] was 2.02% and the viability, T/C [12] was 0.31%. It also gave a viability, T/C [13] of 7.24%, a viability, T/C [14] of 5.47% and a viability, T/C [15] of 3.67%. For the same molecule, the viability, T/C [16] was 2.76%, the viability, T/C [17] was 1.03% and the viability, T/C [18] was 0.05%. The viability, T/C [19] was 4.18%, the viability, T/C [20] was 2.98% and the viability, T/C [21] was 3.68%. The viability, T/C [22] was 0.86%, the viability, T/C [23] was 0.32% and the viability, T/C [24] was 0.05%. The viability, T/C [25] was 1.88%, the viability, T/C [26] was 2.14% and the viability, T/C [27] was 0.08%. It also gave a viability, T/C [28] of 0.05%, a viability, T/C [29] of 0.06% and a viability, T/C [30] of 0.1%. The viability, T/C [31] was 0.03%, the viability, T/C [32] was 0.09% and the viability, T/C [33] was 0.1%. It also gave a viability, T/C [34] of 0.09%, a viability, T/C [35] of 0.53% and a viability, T/C [36] of 0.23%.

C=CC(=O)N1CCN(c2nc(=O)n(-c3c(C)ccnc3C(C)C)c3nc(-c4c(O)cccc4F)c(F)cc23)C(C)C1 (stereo unspecified) + Cc1[nH]c2ccc(F)cc2c1-c1nc2c3cccnc3c3ncccc3c2[nH]1 showed an IC50 (second compound 0.0316 µM) greater than 10 µM, an IC50 (second compound 0.1 µM) greater than 10 µM and an IC50 (second compound 0.316 µM) greater than 10 µM. It also gave an IC50 (second compound 1 µM) greater than 10 µM, an IC50 (second compound 3.16 µM) greater than 10 µM and an IC50 (second compound 10 µM) greater than 10 µM. The viability, T/C [1] was 99.9%, the viability, T/C [2] was 94.1% and the viability, T/C [3] was 103%. For the same molecule, the viability, T/C [4] was 93.8%, the viability, T/C [5] was 105% and the viability, T/C [6] was 107%. For the same molecule, the viability, T/C [7] was 105%, the viability, T/C [8] was 96.6% and the viability, T/C [9] was 103%. For the same molecule, the viability, T/C [10] was 95.2%, the viability, T/C [11] was 102% and the viability, T/C [12] was 114%. The viability, T/C [13] was 97.4%, the viability, T/C [14] was 99.7% and the viability, T/C [15] was 90.3%. For the same molecule, the viability, T/C [16] was 106%, the viability, T/C [17] was 104% and the viability, T/C [18] was 111%. It also gave a viability, T/C [19] of 95.4%, a viability, T/C [20] of 103% and a viability, T/C [21] of 105%. It also gave a viability, T/C [22] of 98.4%, a viability, T/C [23] of 86.1% and a viability, T/C [24] of 109%. It also gave a viability, T/C [25] of 101%, a viability, T/C [26] of 101% and a viability, T/C [27] of 111%. For the same molecule, the viability, T/C [28] was 100%, the viability, T/C [29] was 108% and the viability, T/C [30] was 101%. The viability, T/C [31] was 99.2%, the viability, T/C [32] was 98% and the viability, T/C [33] was 104%. For the same molecule, the viability, T/C [34] was 101%, the viability, T/C [35] was 94.4% and the viability, T/C [36] was 76.8%.
